From US20250360155A1, “METHOD OF TREATING SPINAL CORD INJURY AND COMPOSITION FOR USE THEREIN” (ACADEMIA SINICA, priority 2022, published 2025)

Assays:
C57BL/6J mice with SCI [1] = assay: Nissl staining of spinal cord lesion after spinal cord contusion; type: in vivo, mouse; conditions: vs vehicle
Protocol: (§1) Mice were anesthetized by intramuscular injection of Zoletil® (50 mg/kg; tiletamine hydrochloride and zolazepam hydrochloride) and Rompun® (12 mg/kg; xylazine hydrochloride) before the surgery. After laminectomy on the T9-T10 vertebral column, the spinal cord was exposed and contused by a 10 g rod with an impact head of 1.2 mm diameter at the height of 6.25 mm above the T10 spinal cord to allow it to drop using an Impactor model-II spinal cord contusion system (RWD6809911) to cause the contusion injury. In the sham group, surgery procedures were identical except for the spinal contusion. After the injury, the wound was quickly sutured using 4.0 silk thread (Unik Taiwan; New Taipei city, Taiwan). The bladders of mice were manually and gently massaged once a day to avoid retention of urine until the reflexive control of micturition was restored. Cefazolin (300 mg/kg) was given for consecutive three days after surgery to prevent infection. Fourteen days after the surgery, mice were sacrificed for analyses.
(§2) In one example for the treatment of J4, which can be used as an ENT1 inhibitor, male C57BL/6J mice (8-12 weeks old) were divided into three groups: the sham group, the SCI+J4 group and the SCI+vehicle group. Please refer to FIG. 1. In the J4 group, mice were pretreated with 10 mg/kg J4 twice a day for three days before the injury. […]

C57BL/6J mice with SCI [2] = assay: RT-qPCR of inflammatory cytokines in spinal cord after spinal cord contusion; type: in vivo, mouse; conditions: J4 10 mg/kg twice a day; perilesional area, 14 days post-injury; vs vehicle
Protocol: as §1
as §2, with “injury. Following the SCI, J4 (10 mg/kg) was administered to mice twice a day for consecutive 14 days.” for “injury.”
Mice were anesthetized by the inhalation of isoflurane. […] Total RNA isolation, quality check, cDNA synthesis and SYBR green based quantitative real-time PCR assay were performed as described previously.^7 The forward/reverse primer sequences for IL-1β, IL-6, TNF-α, and GAPDH were listed in Table 1. The relative expression of target genes normalized to that of glyceraldehyde 3-phosphate dehydrogenase (GAPDH) was calculated by the comparative Ct (ΔCt) and was expressed as 2−ΔCt. The relative quantity was determined by the formula: 2−ΔΔCt, in which ΔΔCt values were obtained by subtracting the ΔCt values of mice with SCI from the sham controls.

C57BL/6J mice with SCI [3] = assay: Immunofluorescence staining of spinal cord perilesional area after spinal cord contusion; type: in vivo, mouse
Protocol: as §1
(§3) In one example for the treatment of J4, which can be used as an ENT1 inhibitor, male C57BL/6J mice (8-12 weeks old) were divided into three groups: the sham group, the SCI+J4 group and the SCI+vehicle group. Please refer to FIG. 1. In the J4 group, mice were pretreated with 10 mg/kg J4 twice a day for three days before the injury. Following the SCI, J4 (10 mg/kg) was administered to mice twice a day for consecutive 14 days. In vehicle group, mice were treated with 5% DMSO, instead of J4, following the same protocol of the J4-treated group. The sham group received the same treatment as the vehicle group. All mice were maintained on a 12 h light/dark schedule and given food and water ad libitum in the Laboratory Animal Center (an AAALAC accredited experimental animal facility) at National Taiwan University. Procedures involving animals were conducted according to the ARRIVE (Animal Research: Reporting In Vivo Experiments) guidelines.
(§4) In another example for the treatment of JMF 1907 (i.e. the compound of formula (III)), male C57BL/6J mice (8-12 weeks old) were divided into three groups: the JMF1907 group, the methylprednisolone (MPSS) group and the vehicle group. Wherein, JMF1907 (10 mg/kg twice daily for 14 days), methylprednisolone (30 mg/kg 10 min after crush, then at 2, 4, and 6 h after crush), or vehicle (0.5% DMSO, twice daily for 14 days) was administered to said mice.
After being anesthetized by Zoletil® (50 mg/kg) and Rompun® (12 mg/kg), mice were intracardially perfused with ice-cold normal saline. The spinal cord (T9-T11) was removed and soaked in ice-cold 4% paraformaldehyde. The vertebrae were then placed in cassettes for paraffin embedding. The samples were cut into sagittal section of 4 μm and placed in water bath at 42° C. The section was mounted onto slides and stored at room temperature until analysis. After deparaffinization, tissue retrieval was conducted in sodium citrate buffer (pH=6) at 90° C. and the spinal cord slices were then washed with phosphate-buffered saline (PBS). Sections were incubated in antibody dilution buffer (Roche, Basel, Swiss) at room temperature. The slides were immunostained by the following primary antibodies: chicken anti-neuronal nuclear protein (NeuN) (1:2000; Merck-Millipore, Dramstadt, Germany), rabbit anti-ionized calcium-binding adapter molecule-1 (Iba-1) (1:1000; Abcam, Cambridge, MA, USA), or mouse anti-glial fibrillary acidic protein (Gfap) (1:1000; cell signaling, Danvers, Massachusetts, USA) overnight at 4° C. Corresponding secondary antibodies conjugated with Alexa Fluor 488 or Rhodamine (Jackson Immuno Research Laboratories, West Grove, PA, USA) were applied for the visualization of immunolabelling. After being washed with PBST (Phosphate Buffered Saline with Tween® 20) and PBS, the slices were mounted on a mounting gel (DAPI Fluoromount G; Southern Biotech Birmingham, Alabama, USA). Images were acquired by a Zeiss AXIO Imager M1 microscope (Carl Zeiss, Gottingen, Germany). […]

C57BL/6J mice with SCI [4] = assay: Western blot of spinal cord (T9-T11) after spinal cord contusion; type: in vivo, mouse; conditions: J4 10 mg/kg twice a day
Protocol: as §1, §3
The protein concentrations of the samples were determined by the Bio-Rad DC Protein Assay Kit (Bio-rad, Hercules, CA, USA). Protein samples (10 μg each) were diluted with loading buffer (200 mM Tris-HCl, 1.43% 2-mercaptoethanol, 0.4% bromophenol blue, and 40% glycerol) and heated at 98° C. The protein samples were then separated with 90 V for 10 minutes, followed by 130 V for 60 minutes on 12% SDS-polyacrylamide gel (for S100a10, c-caspase3 and GAPDH) or 8% SDS-polyacrylamide gel (for C3, NeuN) in running buffer (0.3% Tris base, 1.88% glycine, and 0.1% SDS). After electrophoresis, the gel was transferred onto a nitrocellulose membrane in transfer buffer (0.3% Tris base, 1.88% glycine, and 20% methanol; pH 8.3) with 300 mA for 90 minutes. Nonspecific binding to membrane was blocked by BlockPRO™ 1 Min Protein Free Blocking Buffer (Neihu, Taipei City, Taiwan) at room temperature on shaker at 25 rpm. […] Bound antibodies were detected using Chemiluminescence reagent Plus (PerkinElmer Life Sciences, MA, USA) and Bio-rad ChemiDoc™ XRS+ Systems and Image Lab™ Software to obtain images under appropriate exposure time.

C57BL/6J mice with SCI [5] = assay: Behavioral tests (Basso Mouse Scale, footprint analysis) after spinal cord contusion; type: in vivo; conditions: vs vehicle
Protocol: as §1, §3, §4
The motor function after SCI was evaluated from day 3 to day 14 after the surgery by locomotor open-field rating scale on the Basso Mouse Scale (BMS).^6 Scoring ranged from 0 for complete paraplegia to 9 for normal function. The footprint analysis was assessed on day 14 after the surgery. The hindlimbs of the mice were dipped in red and black dye for left and right foot, respectively. […]

[6] = JMF1907 10 mg/kg twice daily for 14 days
[7] = JMF1907 10 mg/kg twice daily for 14 days, vs vehicle

OC[C@H]1O[C@@H](n2cnc3c(NCc4ccc(Br)s4)ncnc32)[C@H](O)[C@@H]1O [J4, N^6-[(5-bromothien-2-yl)methyl]adenosine]
loss of spinal cord tissue (lesion volume, Nissl staining) (C57BL/6J mice with SCI [1]; J4 10 mg/kg twice a day, 14 days post-injury): significantly reduced
expression of IL-6 (mRNA) (C57BL/6J mice with SCI [2]): trend of reduction
expression of IL-10 (mRNA) (C57BL/6J mice with SCI [2]): trend of reduction
expression of TNF-α (mRNA) (C57BL/6J mice with SCI [2]): significantly reduced
NeuN-positive cells in the perilesional area (immunostaining) (C57BL/6J mice with SCI [3]; J4 10 mg/kg twice a day, 14 DPI, vs vehicle): more
intensity of Iba-1-positive cells (C57BL/6J mice with SCI [3]; J4 10 mg/kg twice a day, perilesional area, 14 DPI, vs vehicle-treated group): lower
average fluorescence intensity of Gfap (C57BL/6J mice with SCI [3]; J4 10 mg/kg twice a day, perilesional area, 14 days post-injury, vs vehicle group): remarkably decreased
protein level of c-caspase3 (C57BL/6J mice with SCI [4]; 14 DPI, vs vehicle): decreased
protein level of NeuN (C57BL/6J mice with SCI [4]; 14 DPI, vs vehicle group): higher
TGF-β protein (C57BL/6J mice with SCI [4]; vs vehicle): significantly increased
protein level of C3 (A1 astrocyte marker) (C57BL/6J mice with SCI [4]; vs vehicle): significantly decreased
protein level of S100a10 (A2 astrocyte marker) (C57BL/6J mice with SCI [4]; vs vehicle): increased
stride length (footprint analysis) (C57BL/6J mice with SCI [5]; J4 10 mg/kg twice a day, 3 days before and 14 days after SCI, 14 DPI): improved
BMS score (C57BL/6J mice with SCI [5]; J4 10 mg/kg twice a day, intraperitoneal, 3 days before injury and 14 days after SCI): improved

OC[C@H]1O[C@@H](n2cnc3c(NCCc4c[nH]c5ccccc45)ncnc32)[C@@H](O)C1O (stereo partly drawn) [JMF1907]
lesion of the SCI (Nissl staining) (C57BL/6J mice with SCI [1]; [6]): significantly reduce
lesion of the SCI (immunofluorescence analysis, Pdgf§ expression) (C57BL/6J mice with SCI [3]; [7]): significantly reduce
level of CD68 (marker for microglia) (C57BL/6J mice with SCI [3]; [7]): significantly reduced
level of Gfap (marker for reactive astrocytes) (C57BL/6J mice with SCI [3]; [7]): significantly reduced
level of Iba-1 (marker for microglia) (C57BL/6J mice with SCI [3]; [7]): significantly reduced
motor function (BMS score) (C57BL/6J mice with SCI [5]; [6]): significantly improve
stride length (C57BL/6J mice with SCI [5]; [6]): significantly improve
